Laboratory results: US7041687B2, “Indazole compounds useful as protein kinase inhibitors” (Vertex Pharmaceuticals Incorporated, priority 2002, dated 2006)

Tests used:
Type in all cases: biochemical
PKA = PKA (Homo sapiens, UniProt P17612); experiment: PKA inhibition assay (standard coupled enzyme assay); settings: 50 μM ATP, 80 μM Kemptide, 18 nM PKA, 30° C.
Method: Compounds were screened for their ability to inhibit PKA using a standard coupled enzyme assay (Fox et al., Protein Sci., (1998) 7, 2249). Assays were carried out in a mixture of 100 mM HEPES 7.5, 10 mM MgCl2, 25 mM NaCl, 1 mM DTT and 3% DMSO. Final substrate concentrations in the assay were 50 μM ATP (Sigma Chemicals) and 80 μM peptide (Kemptide, American Peptide, Sunnyvale, Calif.). Assays were carried out at 30° C. and 18 nM PKA. Final concentrations of the components of the coupled enzyme system were 2.5 mM phosphoenolpyruvate, 300 μM NADH, 30 μg/ml pyruvate kinase and 10 μg/ml lactate dehydrogenase.
An assay stock buffer solution was prepared containing all of the reagents listed above, with the exception of ATP, and the test compound of interest. 55 μl of the stock solution was placed in a 96 well plate followed by addition of 2 μl of DMSO stock containing serial dilutions of the test compound (typically starting from a final concentration of 5 μM). The plate was preincubated for 10 minutes at 30° C. and the reaction initiated by addition of 5 μl of ATP (final concentration 50 μM). Initial reaction rates were determined with a Molecular Devices SpectraMax Plus plate reader over a 15 minute time course. IC50 and Ki data were calculated from non-linear regression analysis using the Prism software package (GraphPad Prism version 3.0a for Macintosh, GraphPad Software, San Diego Calif., USA).

AKT-3 = AKT-3 (Homo sapiens, UniProt Q9Y243); experiment: AKT-3 inhibition assay (standard coupled enzyme assay); settings: 170 μM ATP, 200 μM peptide, 45 nM AKT, 30° C.
Sequence of AKT-3 (Q9Y243 whole entry): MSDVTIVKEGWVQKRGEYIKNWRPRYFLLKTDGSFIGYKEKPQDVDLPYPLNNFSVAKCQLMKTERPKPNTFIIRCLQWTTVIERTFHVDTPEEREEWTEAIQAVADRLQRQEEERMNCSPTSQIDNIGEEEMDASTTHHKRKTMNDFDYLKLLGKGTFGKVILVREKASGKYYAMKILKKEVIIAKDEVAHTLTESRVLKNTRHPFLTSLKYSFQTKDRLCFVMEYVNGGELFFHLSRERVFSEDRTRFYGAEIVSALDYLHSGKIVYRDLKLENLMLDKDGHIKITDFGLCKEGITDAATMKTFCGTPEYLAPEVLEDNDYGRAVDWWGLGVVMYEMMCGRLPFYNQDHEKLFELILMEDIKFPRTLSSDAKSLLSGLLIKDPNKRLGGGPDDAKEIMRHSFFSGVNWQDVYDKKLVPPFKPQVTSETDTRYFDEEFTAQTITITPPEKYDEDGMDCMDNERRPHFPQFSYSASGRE

PDK-1 = target: T1, PDK-1 (Homo sapiens, UniProt O15530); experiment: PDK-1 inhibition assay (radioactive-phosphate incorporation); settings: 40 μM ATP, 65 μM PDKtide, 25 nM PDK-1, 30° C.
T1 sequence (O15530 1-556): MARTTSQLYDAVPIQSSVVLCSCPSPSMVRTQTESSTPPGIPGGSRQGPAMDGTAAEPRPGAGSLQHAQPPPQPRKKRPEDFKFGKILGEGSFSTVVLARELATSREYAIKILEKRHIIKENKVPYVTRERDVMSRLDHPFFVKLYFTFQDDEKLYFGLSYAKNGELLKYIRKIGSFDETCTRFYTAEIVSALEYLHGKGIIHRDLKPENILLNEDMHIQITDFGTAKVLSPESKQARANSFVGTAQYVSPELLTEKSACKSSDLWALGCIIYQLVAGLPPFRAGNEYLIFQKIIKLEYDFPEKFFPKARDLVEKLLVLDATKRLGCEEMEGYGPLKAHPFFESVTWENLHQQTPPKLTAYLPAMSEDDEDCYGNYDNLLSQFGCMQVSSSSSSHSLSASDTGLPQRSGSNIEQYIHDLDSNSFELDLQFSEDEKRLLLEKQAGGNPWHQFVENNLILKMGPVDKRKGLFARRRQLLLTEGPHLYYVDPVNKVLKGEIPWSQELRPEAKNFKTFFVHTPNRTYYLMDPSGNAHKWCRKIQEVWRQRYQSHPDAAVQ
Method: Compounds were screened for their ability to inhibit PDK-1 using a radioactive-phosphate incorporation assay (Pitt and Lee, J. Biomol. Screen., (1996) 1, 47). Assays were carried out in a mixture of 100 mM HEPES (pH 7.5), 10 mM MgCl2, 25 mM NaCl, 2 mM DTT. Final substrate concentrations in the assay were 40 μM ATP (Sigma Chemicals) and 65 μM peptide (PDKtide, Upstate, Lake Placid, N.Y.). Assays were carried out at 30° C. and 25 nM PDK-1 in the presence of ˜27.5 nCi/μL of [γ-^32P]ATP (Amersham Pharmacia Biotech, Amersham, UK). An assay stock buffer solution was prepared containing all of the reagents listed above, with the exception of ATP, and the test compound of interest. 15 μl of the stock solution was placed in a 96 well plate followed by addition of 1 μl of 0.5 mM DMSO stock containing the test compound (final compound concentration 25 μM, final DMSO concentration 5%). The plate was preincubated for about 10 minutes at 30° C. and the reaction initiated by addition of 4 μl ATP (final concentration 40 μM).
The reaction was stopped after 10 minutes by the addition of 100 μL 100 mM phosphoric acid, 0.01% Tween-20. A phosphocellulose 96 well plate (Millipore, Cat no. MAPHNOB50) was pretreated with 100 μL 100 mM phosphoric acid, 0.01% Tween-20 prior to the addition of the reaction mixture (100 μL). The spots were left to soak for at least 5 minutes, prior to wash steps (4×200 μL 100 mM phosphoric acid, 0.01% Tween-20). Alter drying, 20 μL Optiphase ‘SuperMix’ liquid scintillation cocktail (Perkin Elmer) was added to the well prior to scintillation counting (1450 Microbeta Liquid Scintillation Counter, Wallac).

Row | Structure (SMILES) | Ki (PKA) | Ki (AKT-3) | Ki (PDK-1)
1 | O=C(Cc1cccc(C(F)(F)F)c1)Nc1ccc2[nH]ncc2c1 [Compound I-2] | < 1000 nM | 10000 to 20000 nM | –
2 | O=C(Cc1cccc(Cl)c1)Nc1ccc2[nH]ncc2c1 [Compound I-6, 2-(3-Chloro-phenyl)-N-(1H-indazol-5-yl)-acetamide] | 1000 to 5000 nM | – | –
3 | O=C(Cc1c[nH]c2ccccc12)Nc1ccc2[nH]ncc2c1 [Compound I-24] | 1000 to 5000 nM | – | –
4 | O=C(Nc1ccc2[nH]ncc2c1)C(O)c1ccc(Cl)cc1 (centres unmarked) [Compound I-35] | < 1000 nM | 1000 to 10000 nM | –
5 | O=C(Nc1ccc2[nH]ncc2c1)[C@H](O)c1cccc(Cl)c1 [Compound I-40] | < 1000 nM | 1000 to 10000 nM | –
6 | O=C(Nc1ccc2[nH]ncc2c1)C(O)c1cc(F)cc(F)c1 (centres unmarked) [Compound I-43] | < 1000 nM | 1000 to 10000 nM | –
7 | N[C@@H](C(=O)Nc1ccc2[nH]ncc2c1)c1ccccc1 [Compound I-48] | < 1000 nM | 1000 to 10000 nM | –
8 | NC(C(=O)Nc1ccc2[nH]ncc2c1)c1cccc(Cl)c1 (centres unmarked) [Compound I-51] | < 1000 nM | 1000 to 10000 nM | –
9 | NC(C(=O)Nc1ccc2[nH]ncc2c1)c1cccc(Br)c1 (centres unmarked) [Compound I-52] | < 1000 nM | 10000 to 20000 nM | –
10 | NC(C(=O)Nc1ccc2[nH]ncc2c1)c1ccc(F)c(Cl)c1 (centres unmarked) [Compound I-55] | < 1000 nM | 1000 to 10000 nM | –
11 | NC(C(=O)Nc1ccc2[nH]ncc2c1)c1c[nH]c2ccccc12 (centres unmarked) [Compound I-56] | < 1000 nM | 1000 to 10000 nM | –
12 | NCCNC(C(=O)Nc1ccc2[nH]ncc2c1)c1ccc(Cl)c(Cl)c1 (centres unmarked) [Compound I-69] | < 1000 nM | – | –
13 | O=C(Nc1ccc2[nH]ncc2c1)C(CO)c1ccccc1 (centres unmarked) [Compound I-84] | 1000 to 5000 nM | – | –
14 | O=C(Nc1ccc2[nH]ncc2c1)C(CO)c1ccc(F)c(Cl)c1 (centres unmarked) [Compound I-85] | < 1000 nM | – | –
15 | O=C(CCCc1ccccc1)Nc1ccc2[nH]ncc2c1 [Compound I-92] | 1000 to 5000 nM | – | –
16 | O=C(Cc1cccc(Cl)c1F)Nc1ccc2[nH]ncc2c1 [Compound I-93] | < 1000 nM | – | –
17 | Cc1cccn(C(CCN)C(=O)Nc2ccc3[nH]nc(C)c3c2)c1=O (centres unmarked) [Compound I-137] | – | 1000 to 10000 nM | 1000 to 3000 nM
18 | Cc1n[nH]c2ccc(NC(=O)C(CCN)c3cccc(CC(C)C)c3)cc12 (centres unmarked) [Compound I-142] | – | 1000 to 10000 nM | > 3000 nM
19 | NCCC(C(=O)Nc1cc(-c2ccccc2)c2[nH]ncc2c1)c1ccc(Cl)c(Cl)c1 (centres unmarked) [Compound I-150] | – | 1000 to 10000 nM | > 3000 nM
20 | NCCC(SCc1ccccc1)C(=O)Nc1ccc2[nH]ncc2c1 (centres unmarked) [Compound I-154] | – | 1000 to 10000 nM | > 3000 nM
21 | NCCC(C(=O)Nc1ccc2[nH]nc(NC(=O)c3ccc4ccccc4c3)c2c1)c1ccc(Cl)c(Cl)c1 (centres unmarked) [Compound I-170] | – | < 1000 nM | 1000 to 3000 nM
22 | NCCC(C(=O)Nc1ccc2[nH]nc(NC(=O)c3ccc4c(c3)OCO4)c2c1)c1ccc(Cl)c(Cl)c1 (centres unmarked) [Compound I-171] | – | < 1000 nM | < 1000 nM
23 | NCCC(C(=O)Nc1ccc2[nH]nc(NC(=O)Nc3cccc(Cl)c3)c2c1)c1ccc(Cl)c(Cl)c1 (centres unmarked) [Compound I-173] | – | < 1000 nM | < 1000 nM
24 | NCCC(C(=O)Nc1ccc2[nH]nc(NC(=O)Nc3ccccc3)c2c1)c1ccc(Cl)c(Cl)c1 (centres unmarked) [Compound I-176] | – | 1000 to 10000 nM | 1000 to 3000 nM
25 | NCCC(C(=O)Nc1ccc2[nH]nc(NS(=O)(=O)c3ccccc3)c2c1)c1ccc(Cl)c(Cl)c1 (centres unmarked) [Compound I-190] | – | 10000 to 20000 nM | > 3000 nM
26 | NCCC(C(=O)Nc1ccc2[nH]nc(NS(=O)(=O)c3cccc(Cl)c3)c2c1)c1ccc(Cl)c(Cl)c1 (centres unmarked) [Compound I-191] | – | 1000 to 10000 nM | > 3000 nM
27 | Cc1cccc(Nc2n[nH]c3ccc(NC(=O)C(CCN)c4ccc(Cl)c(Cl)c4)cc23)c1 (centres unmarked) [Compound I-212] | – | < 1000 nM | 1000 to 3000 nM
